Measured values reported in ChEMBL document CHEMBL4507259 (2021).

Key:
[1] = biological target: G protein-coupled receptor kinase 4 (Homo sapiens) (UniProt P32298); details: Compound concentration 1000.0 nM
[2] = biological target: Mitogen-activated protein kinase kinase kinase 11 (Homo sapiens) (UniProt Q16584); details: Compound concentration 1000.0 nM
[3] = biological target: T1, Alpha-1B adrenergic receptor (Homo sapiens) (UniProt P35368); details: Compound concentration 10.0 uM
T1 sequence (whole entry): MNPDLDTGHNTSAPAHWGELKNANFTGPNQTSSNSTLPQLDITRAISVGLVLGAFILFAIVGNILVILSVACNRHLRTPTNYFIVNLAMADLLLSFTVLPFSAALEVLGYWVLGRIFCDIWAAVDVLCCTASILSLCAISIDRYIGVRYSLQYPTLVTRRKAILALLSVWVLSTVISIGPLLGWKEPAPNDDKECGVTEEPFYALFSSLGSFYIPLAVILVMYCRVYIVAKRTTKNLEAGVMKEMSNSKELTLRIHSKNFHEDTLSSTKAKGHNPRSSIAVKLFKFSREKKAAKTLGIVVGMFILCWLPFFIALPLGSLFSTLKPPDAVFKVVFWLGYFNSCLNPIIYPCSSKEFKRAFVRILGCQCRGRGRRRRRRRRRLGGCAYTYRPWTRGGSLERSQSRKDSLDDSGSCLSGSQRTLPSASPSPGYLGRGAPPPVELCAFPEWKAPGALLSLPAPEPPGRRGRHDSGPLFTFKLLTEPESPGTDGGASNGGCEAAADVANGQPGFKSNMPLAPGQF

[4] = biological target: STE20-like serine/threonine-protein kinase (Homo sapiens) (UniProt Q9H2G2); details: Compound concentration 1000.0 nM
[5] = biological target: T2, 5-hydroxytryptamine receptor 2C (Homo sapiens) (UniProt P28335); details: Compound concentration 10.0 uM
T2 sequence (whole entry): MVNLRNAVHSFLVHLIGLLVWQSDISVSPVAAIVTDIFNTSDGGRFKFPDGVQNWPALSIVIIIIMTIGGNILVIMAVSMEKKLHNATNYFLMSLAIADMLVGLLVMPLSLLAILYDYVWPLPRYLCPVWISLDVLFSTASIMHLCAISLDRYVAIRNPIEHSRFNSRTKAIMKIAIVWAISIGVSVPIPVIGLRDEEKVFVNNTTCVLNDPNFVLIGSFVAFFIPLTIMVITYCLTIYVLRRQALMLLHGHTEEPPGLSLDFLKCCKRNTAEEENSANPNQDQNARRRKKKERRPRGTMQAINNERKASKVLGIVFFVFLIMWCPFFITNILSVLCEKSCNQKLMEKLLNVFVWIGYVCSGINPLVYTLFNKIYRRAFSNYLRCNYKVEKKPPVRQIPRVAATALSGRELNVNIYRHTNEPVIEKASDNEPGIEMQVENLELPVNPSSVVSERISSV

[6] = biological target: Ribosomal protein S6 kinase alpha-6 (Homo sapiens) (UniProt Q9UK32); details: Compound concentration 1000.0 nM
[7] = biological target: Serine/threonine-protein kinase 32B (Homo sapiens) (UniProt Q9NY57); details: Compound concentration 1000.0 nM
[8] = biological target: T3, Muscarinic acetylcholine receptor M1 (Homo sapiens) (UniProt P11229); assay: M1 (h) CEREP ligand profiling; details: filed as antagonist, Compound concentration 10.0 uM
T3 sequence (whole entry): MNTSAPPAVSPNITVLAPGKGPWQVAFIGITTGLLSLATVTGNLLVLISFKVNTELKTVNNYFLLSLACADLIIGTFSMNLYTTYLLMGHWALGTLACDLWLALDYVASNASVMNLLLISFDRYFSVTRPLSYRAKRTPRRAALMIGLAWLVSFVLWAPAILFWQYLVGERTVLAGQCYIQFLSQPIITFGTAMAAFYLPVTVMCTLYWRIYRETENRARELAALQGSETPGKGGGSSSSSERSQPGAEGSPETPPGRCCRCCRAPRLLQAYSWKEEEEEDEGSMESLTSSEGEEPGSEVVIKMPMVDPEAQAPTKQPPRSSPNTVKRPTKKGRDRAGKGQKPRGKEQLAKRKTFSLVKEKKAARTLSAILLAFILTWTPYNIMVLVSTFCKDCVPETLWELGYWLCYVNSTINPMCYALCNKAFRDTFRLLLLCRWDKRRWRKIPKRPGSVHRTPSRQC

[9] = biological target: Serine/threonine-protein kinase BRSK1 (Homo sapiens) (UniProt Q8TDC3); details: Compound concentration 1000.0 nM
Chain of Serine/threonine-protein kinase BRSK1 (Homo sapiens) (Q8TDC3 whole entry): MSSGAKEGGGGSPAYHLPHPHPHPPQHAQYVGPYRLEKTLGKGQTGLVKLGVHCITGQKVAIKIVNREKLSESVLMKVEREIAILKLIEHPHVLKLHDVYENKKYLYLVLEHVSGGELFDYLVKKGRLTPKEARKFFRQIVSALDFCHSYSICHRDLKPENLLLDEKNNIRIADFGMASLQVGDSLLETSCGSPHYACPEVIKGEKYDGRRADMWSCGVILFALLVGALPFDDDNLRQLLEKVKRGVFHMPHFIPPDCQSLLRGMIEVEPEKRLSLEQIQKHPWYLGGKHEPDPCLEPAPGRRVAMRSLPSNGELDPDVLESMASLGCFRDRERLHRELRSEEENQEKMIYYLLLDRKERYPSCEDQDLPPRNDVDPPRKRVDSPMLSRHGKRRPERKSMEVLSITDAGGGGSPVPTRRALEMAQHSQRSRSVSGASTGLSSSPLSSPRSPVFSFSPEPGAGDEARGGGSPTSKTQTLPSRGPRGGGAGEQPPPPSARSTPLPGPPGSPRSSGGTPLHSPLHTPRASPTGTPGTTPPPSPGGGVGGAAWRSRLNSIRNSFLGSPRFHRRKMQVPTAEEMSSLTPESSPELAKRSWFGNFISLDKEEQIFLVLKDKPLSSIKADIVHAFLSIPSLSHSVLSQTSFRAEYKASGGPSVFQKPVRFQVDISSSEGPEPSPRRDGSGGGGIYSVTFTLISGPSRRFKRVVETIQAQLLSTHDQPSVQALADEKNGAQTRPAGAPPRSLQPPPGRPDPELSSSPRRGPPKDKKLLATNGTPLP

[10] = biological target: Receptor-interacting serine/threonine-protein kinase 2 (Homo sapiens) (UniProt O43353); details: Compound concentration 1000.0 nM
[11] = biological target: Serine/threonine-protein kinase 26 (Homo sapiens) (UniProt Q9P289); details: Compound concentration 1000.0 nM
[12] = biological target: Type-2 angiotensin II receptor (Homo sapiens) (UniProt P50052); assay: AT2 (h) CEREP ligand profiling; details: filed as agonist, Compound concentration 10.0 uM
Chain of Type-2 angiotensin II receptor (Homo sapiens) (P50052 whole entry): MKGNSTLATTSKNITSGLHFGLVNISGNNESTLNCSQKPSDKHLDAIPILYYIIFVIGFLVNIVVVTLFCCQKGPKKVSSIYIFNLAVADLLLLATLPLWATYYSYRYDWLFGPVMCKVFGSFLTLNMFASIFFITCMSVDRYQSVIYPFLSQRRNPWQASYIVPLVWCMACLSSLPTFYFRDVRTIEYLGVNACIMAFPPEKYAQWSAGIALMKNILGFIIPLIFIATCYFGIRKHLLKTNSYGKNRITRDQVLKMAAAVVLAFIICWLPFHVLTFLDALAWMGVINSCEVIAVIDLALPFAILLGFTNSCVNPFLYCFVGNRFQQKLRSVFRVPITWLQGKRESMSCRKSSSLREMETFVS

[13] = biological target: Cyclin-dependent kinase 5 (Homo sapiens) (UniProt Q00535); details: Compound concentration 1000.0 nM
[14] = biological target: Activin receptor type-1-like (Homo sapiens) (UniProt P37023); details: Compound concentration 1000.0 nM
Chain of Activin receptor type-1-like (Homo sapiens) (P37023 whole entry): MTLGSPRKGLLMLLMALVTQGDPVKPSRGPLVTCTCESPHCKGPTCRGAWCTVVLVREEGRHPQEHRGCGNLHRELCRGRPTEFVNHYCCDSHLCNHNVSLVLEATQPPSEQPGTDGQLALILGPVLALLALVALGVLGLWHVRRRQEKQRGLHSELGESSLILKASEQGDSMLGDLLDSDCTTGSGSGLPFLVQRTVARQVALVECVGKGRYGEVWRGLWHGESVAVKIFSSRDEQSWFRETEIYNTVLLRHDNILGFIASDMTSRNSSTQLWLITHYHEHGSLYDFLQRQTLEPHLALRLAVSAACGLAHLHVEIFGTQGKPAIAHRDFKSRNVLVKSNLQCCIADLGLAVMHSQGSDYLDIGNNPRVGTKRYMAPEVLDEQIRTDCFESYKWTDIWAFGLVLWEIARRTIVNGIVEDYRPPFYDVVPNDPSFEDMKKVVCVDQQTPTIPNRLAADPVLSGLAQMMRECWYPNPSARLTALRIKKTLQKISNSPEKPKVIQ

[15] = test system: Proto-oncogene tyrosine-protein kinase receptor Ret (Homo sapiens), P07949 [M918T]; details: Compound concentration 1000.0 nM
[16] = biological target: Dual specificity protein kinase CLK2 (Homo sapiens) (UniProt P49760); details: Compound concentration 1000.0 nM
[17] = biological target: Dual specificity tyrosine-phosphorylation-regulated kinase 1B (Homo sapiens) (UniProt Q9Y463); details: Compound concentration 1000.0 nM
Chain of Dual specificity tyrosine-phosphorylation-regulated kinase 1B (Homo sapiens) (Q9Y463 whole entry, looked up, canonical isoform): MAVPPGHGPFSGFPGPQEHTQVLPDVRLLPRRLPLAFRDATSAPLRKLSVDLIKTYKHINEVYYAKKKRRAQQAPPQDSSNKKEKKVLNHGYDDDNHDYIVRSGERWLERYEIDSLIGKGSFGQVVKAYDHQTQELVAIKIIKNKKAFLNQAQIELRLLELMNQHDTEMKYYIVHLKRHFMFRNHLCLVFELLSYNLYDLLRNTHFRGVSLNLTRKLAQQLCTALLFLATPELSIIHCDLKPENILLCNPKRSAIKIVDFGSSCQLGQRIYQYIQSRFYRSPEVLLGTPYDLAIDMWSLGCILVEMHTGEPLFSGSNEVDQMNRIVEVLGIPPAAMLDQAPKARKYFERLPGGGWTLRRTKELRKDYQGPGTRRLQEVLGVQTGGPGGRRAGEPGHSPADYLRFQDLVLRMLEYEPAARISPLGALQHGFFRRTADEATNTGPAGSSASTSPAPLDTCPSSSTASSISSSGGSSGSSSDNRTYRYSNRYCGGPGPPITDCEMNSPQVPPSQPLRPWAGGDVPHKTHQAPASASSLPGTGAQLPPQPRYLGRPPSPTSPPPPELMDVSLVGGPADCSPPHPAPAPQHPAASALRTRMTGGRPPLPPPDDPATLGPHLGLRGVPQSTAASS

[18] = biological target: Casein kinase I isoform epsilon (Homo sapiens) (UniProt P49674); details: Compound concentration 1000.0 nM
Chain of Casein kinase I isoform epsilon (Homo sapiens) (P49674 whole entry, looked up, canonical isoform): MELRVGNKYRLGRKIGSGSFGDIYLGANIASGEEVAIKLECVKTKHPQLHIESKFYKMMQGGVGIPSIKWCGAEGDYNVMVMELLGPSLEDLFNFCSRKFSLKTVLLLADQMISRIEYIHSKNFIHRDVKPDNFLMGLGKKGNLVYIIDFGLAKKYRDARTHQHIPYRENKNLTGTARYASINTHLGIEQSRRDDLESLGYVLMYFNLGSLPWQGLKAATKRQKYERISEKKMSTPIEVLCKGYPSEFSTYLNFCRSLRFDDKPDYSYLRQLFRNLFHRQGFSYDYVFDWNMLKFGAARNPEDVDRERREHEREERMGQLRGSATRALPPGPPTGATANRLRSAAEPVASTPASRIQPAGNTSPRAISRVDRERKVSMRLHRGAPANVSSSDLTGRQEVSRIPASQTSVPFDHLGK

[19] = biological target: Tyrosine-protein kinase JAK1 (Homo sapiens) (UniProt P23458); details: Compound concentration 1000.0 nM
[20] = biological target: Serine/threonine-protein kinase ULK1 (Homo sapiens) (UniProt O75385); details: Compound concentration 1000.0 nM
Chain of Serine/threonine-protein kinase ULK1 (Homo sapiens) (O75385 whole entry): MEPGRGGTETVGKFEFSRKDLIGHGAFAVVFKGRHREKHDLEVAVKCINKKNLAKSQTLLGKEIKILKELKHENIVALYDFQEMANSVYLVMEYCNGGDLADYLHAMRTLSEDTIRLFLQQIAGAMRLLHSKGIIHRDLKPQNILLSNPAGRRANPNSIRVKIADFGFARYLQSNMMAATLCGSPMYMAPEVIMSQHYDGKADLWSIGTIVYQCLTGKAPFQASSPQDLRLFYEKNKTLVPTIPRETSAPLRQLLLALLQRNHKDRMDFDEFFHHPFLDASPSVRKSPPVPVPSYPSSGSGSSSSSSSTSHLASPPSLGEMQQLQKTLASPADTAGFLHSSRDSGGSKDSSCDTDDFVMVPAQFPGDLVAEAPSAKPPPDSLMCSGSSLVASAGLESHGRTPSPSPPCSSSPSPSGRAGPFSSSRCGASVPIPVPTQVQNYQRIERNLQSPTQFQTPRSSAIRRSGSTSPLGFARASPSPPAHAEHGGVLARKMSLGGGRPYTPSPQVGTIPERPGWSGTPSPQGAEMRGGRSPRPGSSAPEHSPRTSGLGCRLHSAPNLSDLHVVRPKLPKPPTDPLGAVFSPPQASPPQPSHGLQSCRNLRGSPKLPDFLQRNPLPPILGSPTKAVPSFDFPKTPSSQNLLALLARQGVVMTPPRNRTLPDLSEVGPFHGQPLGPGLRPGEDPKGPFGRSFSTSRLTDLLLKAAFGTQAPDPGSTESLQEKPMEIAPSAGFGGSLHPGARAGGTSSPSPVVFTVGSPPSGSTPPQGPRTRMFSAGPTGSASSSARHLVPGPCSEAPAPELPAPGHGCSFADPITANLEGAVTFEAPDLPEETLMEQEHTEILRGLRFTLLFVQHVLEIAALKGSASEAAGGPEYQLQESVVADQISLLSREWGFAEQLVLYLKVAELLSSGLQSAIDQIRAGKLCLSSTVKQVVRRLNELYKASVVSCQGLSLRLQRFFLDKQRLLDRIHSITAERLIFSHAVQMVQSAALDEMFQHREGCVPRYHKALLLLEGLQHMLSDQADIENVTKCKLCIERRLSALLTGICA

[21] = biological target: Mitogen-activated protein kinase 15 (Homo sapiens) (UniProt Q8TD08); details: Compound concentration 1000.0 nM
[22] = biological target: Calcium/calmodulin-dependent protein kinase type II subunit delta (Homo sapiens) (UniProt Q13557); details: Compound concentration 1000.0 nM
[23] = biological target: Ephrin type-B receptor 2 (Homo sapiens) (UniProt P29323); details: Compound concentration 1000.0 nM
[24] = biological target: Cannabinoid receptor 1 (Homo sapiens) (UniProt P21554); assay: CB1 (h) CEREP ligand profiling; details: filed as agonist, Compound concentration 10.0 uM
Chain of Cannabinoid receptor 1 (Homo sapiens) (P21554 whole entry): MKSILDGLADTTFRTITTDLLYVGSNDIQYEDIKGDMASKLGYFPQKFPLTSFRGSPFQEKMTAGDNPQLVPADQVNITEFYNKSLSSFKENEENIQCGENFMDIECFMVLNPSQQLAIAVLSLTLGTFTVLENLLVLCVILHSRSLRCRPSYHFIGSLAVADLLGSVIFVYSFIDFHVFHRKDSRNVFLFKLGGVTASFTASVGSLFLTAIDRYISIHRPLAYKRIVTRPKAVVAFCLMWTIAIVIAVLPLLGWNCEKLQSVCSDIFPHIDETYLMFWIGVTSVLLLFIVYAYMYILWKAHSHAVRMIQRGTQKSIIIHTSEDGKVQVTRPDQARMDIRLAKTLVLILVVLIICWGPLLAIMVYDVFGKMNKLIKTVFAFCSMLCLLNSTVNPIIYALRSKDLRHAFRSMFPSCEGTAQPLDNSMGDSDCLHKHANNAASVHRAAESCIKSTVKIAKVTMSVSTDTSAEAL

[25] = test system: Tyrosine-protein kinase ABL1 (Homo sapiens), P00519 [F317I]; details: Compound concentration 1000.0 nM

Chain of G protein-coupled receptor kinase 4 (Homo sapiens) (P32298 whole entry, looked up): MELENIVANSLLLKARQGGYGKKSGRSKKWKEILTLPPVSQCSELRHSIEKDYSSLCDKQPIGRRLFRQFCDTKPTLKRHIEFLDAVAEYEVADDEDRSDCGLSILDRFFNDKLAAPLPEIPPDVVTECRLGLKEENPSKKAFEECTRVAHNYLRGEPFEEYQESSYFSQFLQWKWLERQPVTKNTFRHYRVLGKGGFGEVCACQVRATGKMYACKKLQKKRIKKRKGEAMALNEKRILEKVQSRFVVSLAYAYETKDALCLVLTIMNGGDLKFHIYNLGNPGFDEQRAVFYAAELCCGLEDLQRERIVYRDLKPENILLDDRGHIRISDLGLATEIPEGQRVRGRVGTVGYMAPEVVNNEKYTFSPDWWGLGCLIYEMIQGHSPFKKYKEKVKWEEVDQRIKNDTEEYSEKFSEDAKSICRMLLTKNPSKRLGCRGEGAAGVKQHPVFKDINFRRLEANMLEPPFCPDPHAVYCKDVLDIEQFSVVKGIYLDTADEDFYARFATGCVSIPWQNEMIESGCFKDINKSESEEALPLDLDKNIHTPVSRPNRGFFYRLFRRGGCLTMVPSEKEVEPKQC

CNC(=O)Nc1ccc2c(c1)[C@@]1(CC2)OC(=O)N(CC(=O)N(Cc2ccc(F)cc2)[C@@H](C)C(F)(F)F)C1=O [A-486]
inactive: residual activity [1] 100% | residual activity [2] 91% | inhibition [3] -1.33% | residual activity [4] 83% | inhibition [5] -3.43% | residual activity [6] 82% | residual activity [7] 67% | inhibition [8] -8% | residual activity [9] 100% | residual activity [10] 83% | residual activity [11] 100% | inhibition [12] 2% | residual activity [13] 79% | residual activity [14] 78% | residual activity [15] 100% | residual activity [16] 100% | residual activity [17] 100% | residual activity [18] 80% | residual activity [19] 85% | residual activity [20] 64% | residual activity [21] 93% | residual activity [22] 100% | residual activity [23] 87% | inhibition [24] 22% | residual activity [25] 78%

CNC(=O)Nc1ccc2c(c1)CC[C@@]21OC(=O)N(CC(=O)N(Cc2ccc(F)cc2)[C@@H](C)C(F)(F)F)C1=O [A-485]
inactive: residual activity [1] 98% | residual activity [2] 73% | inhibition [3] 1.93% | residual activity [4] 82% | inhibition [5] 16.5% | residual activity [6] 81% | residual activity [7] 90% | inhibition [8] -2% | residual activity [9] 97% | residual activity [10] 100% | residual activity [11] 90% | inhibition [12] 12% | residual activity [13] 84% | residual activity [14] 72% | residual activity [15] 95% | residual activity [16] 97% | residual activity [17] 81% | residual activity [18] 80% | residual activity [19] 100% | residual activity [20] 70% | residual activity [21] 74% | residual activity [22] 91% | residual activity [23] 72% | inhibition [24] 25% | residual activity [25] 71%
